Legend:
[1] = tested on: F4/80 (a marker of microgliosis); assay: F4/80 expression after MA (western blot); format: in vivo; details: p.o.; AME 50, EBS 20, rottlerin 20 mg/kg; MA 8 mg/kg i.p. x4; GPx-1 (+/+) and (−/−) mice
Description: (§1) The mice received four times of MA (8 mg/kg, ip) or saline as a 2 hr-time interval. Chemicals (AME, EBS, and PKC inhibitors) were administrated for 5 consecutive days (twice daily), and were given 2 times at 4 hr and 30 min before the first MA injection as shown in the experimental schedule. Animals were sacrificed at 4 hrs and 3 days after the final MA administration.
(§2) The western blot assays was performed as described previously (Kim et al., 2003). Tissues were homogenized in lysis buffer, containing 200 mM Tris HCl (pH 6.8), 1% SDS, 5 mM EGTA (ethylene glycol tetraacetic acid), 5 mM EDTA (ethylenediaminetetraacetic acid), 10% glycerol, 1× phosphatase inhibitor cocktail I, 1× protease inhibitor cocktail. Lysate was centrifuged at 12,000×g for 30 min and supernatant fraction was used for Western blot analysis. Proteins (20-50 ug/lane) were separated by 6%, 8%, 10% or 15% sodium dodecyl sulfate-polyacrylamide gel electrophoresis and transferred onto the PVDF membranes. Following transfer, the membranes were preincubated with 5% non-fat milk and incubated overnight at 4° C. with primary antibody against β-actin (1:50000, Sigma, St. Louis, Mo., USA), TH (1:5000, Chemicon), TH phosphor-Ser 19 (1:1000, Chemicon,), TH phosphor-Ser 31 (1:500, Chemicon), TH phosphor-Ser 40 (1:500, Chemicon), F4/80 (1:500, Serotec), GPx1 (1:2500, AbFrontier), PKC (1:5000, Santa Cruz biotechnology, Santa Cruz, Calif., USA), p53 (1:5000, Cell signaling, Beverly, Mass., USA), MDM2 (1:1000, BD Pharmingen, San Jose, Calif., USA), MDM2 phospho-Ser 166 (1:1000, cell signaling), BDNF (1:500, Chemicon), GDNF (1:250, Santa Cruz), COX-2 (1:2000, Cayman, Ann Arbor, MC, USA), IL-6 (1:2000, Abcam, Cambridge, Mass., USA), TNF-a (1:1000, R&D Systems, Mckinley place NE, NM, USA), IFN-γ (1:500, Chemicon) or Iba-1 (1:500, Wako, Osaka, Japan). And then, membranes were incubated with HRP-conjugated secondary anti-rabbit IgG (1:1000, GE healthcare, Piscataway, N.J., USA), anti-mouse IgG (1:1000, Sigma) or anti-goat IgG (1:1000, Sigma) for 2 h. […]

[2] = tested on: interferon (IFN)-γ; assay: IFN-γ expression after MA (western blot); format: in vivo; details: p.o.; AME 50, EBS 20, rottlerin 20 mg/kg; MA 8 mg/kg i.p. x4; GPx-1 (+/+) and (−/−) mice
Description: as §1, §2

[3] = tested on: protein carbonyl; assay: Striatal protein oxidation (protein carbonyl) after MA; format: in vivo; details: biochemical assay and slot blot; striatum, 3 days after final MA; p.o.; AME 50, EBS 20, rottlerin 20 mg/kg; GPx-1 (+/+) and (−/−) mice
Description: as §1
The amount of oxidized proteins was measured using the Oxyblot kit (Chemicon International, CA) according to the instruction provided by manufacturer. Briefly, the protein carbonyl content was measured by first forming labeled protein hydrazone derivatives using 2,4-dinitrophenylhydrazide (DNP). The DNP-derivatized protein samples were transferred onto PVDF membrane by slot blot apparatus (GE Healthcare). Blots were then incubated with primary antibody specific to the DNP moiety, followed by incubation with a HRP-conjugated secondary antibody. Subsequent visualization was performed using enhanced chemiluminescence system (ECL Plus®, GE healthcare) (Gemma et al., 2004).
The extent of protein carbonyl oxidation in the striatum was assessed by measuring the content of protein carbonyl groups, which was determined spectrophotometrically with the 2,4-dinitrophenyl-hydrazine (DNPH)-labeling procedure (Kim et al., 1997b, 2000b, 2002) as described by Oliver et al. (1987). The results were expressed as nmol of DNPH incorporated/mg protein based on the extinction coefficient for aliphatic hydrazones of 21 mM^−1 cm^−1. Protein was measured using the BCA protein assay reagent (Pierce, Rockford, Ill., USA).

[4] = Kim et al., 1997a; cited from earlier work
[5] = tested on: C57BL/6 mice; assay: Rota-rod test after MPTP; format: in vivo; details: AME 25 mg/kg p.o.; MPTP 25 mg/kg i.p. once a day for 7 days; 3 days after final MPTP
Description: AME (25 mg/kg, p.o) administration was started 4 days (twice daily) before the first injection of MPTP and continued for 7 consecutive days (once a day). MPTP was injected (25 mg/kg, i.p) once a day 1 h after AME treatment for consecutive 7 days.
The apparatus (Ugo Basile model 7650) consisted of a base platform and a rotating rod with a nonslippery surface. The rod was placed at a height of 15 cm from the base. The rod, 30 cm in length, was divided into 5 equal sections by 6 opaque disks (so that the subjects cannot be distracted by one another). To assess motor performance, the mice were first trained on the apparatus 2 minutes at a rate 4 r.p.m. per 30 s prior to the test. The test was performed 30 minutes after training and an accelerating paradigm was applied at a rate 4 r.p.m. per 30 s, starting from 4 r.p.m. to a maximum speed of 40 r.p.m., then the rotation speed was kept constant at 40 r.p.m. for a maximum of 300 s. The duration for which the animal could maintain balance on the rotating drum was measured as the rotarod latency, with a maximal cut-off time of 300 s.

[6] = Kim et al., 1997b; cited from earlier work
[7] = Kim et al., 1997a; cited from earlier work; remark: listed apart in the source
[8] = tested on: glutathione peroxidase (GPx); details: Kim et al., 1996; cited from earlier work
[9] = in vitro; Han et al., 1994; cited from earlier work

Row | SMILES | effect on MA-induced increase in F4/80 expression [1] | effect on MA-induced increase in IFN-γ expression [2] | effect on MA-induced increase in protein oxidation [3] | antithrombotic efficacy [4] | effect on MPTP-induced impairment in rota-rod performance [5] | neuroexcitotoxicity [6] | gastrointestinal damage [7] | activity of glutathione peroxidase (GPx) [8] | antioxidative efficacy [9]
1 | O=c1c2ccccc2[se]n1-c1ccccc1 [EBS, 2-phenyl-1,2-benzisoselenazol-3(2H)-one] | significantly and consistently attenuating effects | significantly and consistently attenuating effects | significantly attenuated |  |  |  |  |  | 
2 | CC(=O)c1c(O)c(C)c(O)c(Cc2c(O)c3c(c(C(=O)/C=C/c4ccccc4)c2O)OC(C)(C)C=C3)c1O [rottlerin] | significantly and consistently attenuating effects | significantly and consistently attenuating effects | significantly attenuated |  |  |  |  |  | 
3 | CC(=O)Oc1ccccc1C(=O)Oc1c(C)occc1=O [AME, 3-(2-methyl-4-pyronyl)-2-acetyloxybenzoate] | significantly and consistently attenuating effects | significantly and consistently attenuating effects | significantly attenuated | antithrombotic efficacy | significantly attenuated | attenuates neuroexcitotoxicity | negligible gastrointestinal damage | elevating the activity of glutathione peroxidase (GPx) | antioxidative efficacy in vitro

— patent US20120328696A1, “ANTI-PARKINSONIAN COMPOUND ACETYLSALICYLIC ACID MALTOL ESTER” (Hutecs Korea Pharmaceutical Co., Ltd., priority 2008, published 2012)
